For data set [1], the system named is tubulin isolated from calf brain. The data set is classed as biochemical.
Another data set concerns Pat-21 breast carcinoma. Details: species or system nude mice. Particulars: mouse, in vivo.
Data set [2] relates to HCT116/VM46 human colon carcinoma xenograft. As to the kind of experiment: In vivo antitumor testing, HCT116/VM46 xenograft.
For data set [3], the system named is Pat-7 human ovarian carcinoma.
Data set [4] concerns Pat-26 human pancreatic carcinoma. Kind of data set: In vivo antitumor testing, Pat-26 xenograft.
Data set [5] deals with A2780Tax ovarian carcinoma xenograft (mutated tubulin). Details: species or system nude mice. Particulars: mouse, in vivo.
The next data set concerns HCT116/VM46 cells. In kind it is cell-based, human.
The nature of a further data set: in vivo. Particulars: Balb/c nu/nu, mouse.
Data set [6] is described as follows: In vivo antitumor testing, HCT116/VM46 xenograft. Particulars: Balb/c nu/nu, mouse, in vivo, iv.
A short description of data set [7]: In vivo antitumor testing, Pat-26 xenograft. The following applies: Balb/c nu/nu, mouse, in vivo, iv.
For data set [8], the system named is panel of tumor cell lines. Kind of data set: Cytotoxicity assay (tetrazolium-based colorimetric), panel of tumor cell lines. Particulars: 72 h, read-out: IC50 (median cytotoxic concentration).
Where [9] appears, read: paclitaxel, results obtained in separate studies.

Like-named read-outs stand apart in the source and are kept apart here.

For the compound Epothilone B [BMS-205535], in data set [1], the “Polymerization Potency, EC0.01” value was found to be 1800 nM and the “Ratio of Polymerization Potency of Analog/Paclitaxel” value (shortened to “Ratio … of Analog/Paclitaxel”) was 0.3.

`C/C(=C\c1csc(C)n1)[C@@H]1C[C@@H]2O[C@@H]2CCC[C@H](C)[C@H](O)[C@@H](C)C(=O)C(C)(C)[C@@H](O)CC(=O)O1` [BMS-212188, Epothilone A]: in [1], the “Ratio … of Analog/Paclitaxel” value was 0.4. For the same compound, the “Polymerization Potency, EC0.01” value in data set [1] (concentration inducing initial slope of 0.01 OD/minute) stood at 2000 nM.

As for `CC(=O)O[C@H]1C(=O)[C@@]2(C)[C@H]([C@H](OC(=O)c3ccccc3)[C@]3(O)C[C@H](OC(=O)[C@H](O)[C@@H](NC(=O)c4ccccc4)c4ccccc4)C(C)=C1C3(C)C)[C@]1(OC(C)=O)CO[C@@H]1C[C@@H]2O` [Paclitaxel, paclitaxel, reference compound], the “LCK (gross log cell kill)” value in the data set with Pat-21 breast carcinoma was found to be 0.3; in [2] (setting [9]) it was 0.55; in [3] (setting [9]) it was 0.8; in [4] (setting [9]), 0.4; in data set [5], 0.8. In addition, the “ratio of concentration (R/S or resistance ratio) to inhibit cell growth by 50%” value in the data set with HCT116/VM46 cells is 155 fold.

With `C/C(=C\c1csc(CN)n1)[C@@H]1C[C@@H]2O[C@]2(C)CCC[C@H](C)[C@H](O)[C@@H](C)C(=O)C(C)(C)[C@@H](O)CC(=O)O1` (relative stereo) [BMS-310705, [1S-[1R*,3R*(E),7R*,10S*,11R*,12R*,16S*]]-7,11-dihydroxy-8,8,10,12,16-pentamethyl-3-[1-methyl-2-(2-aminomethyl-4-thiazolyl)ethenyl]-4,17-dioxabicyclo[14.1.0]heptadecane-5,9-dione], the “Polymerization Potency, EC0.01” value in [1] worked out at 7400 nM. The “Ratio … of Analog/Paclitaxel” value in [1] came out at 1.7. Moreover, the “tubulin polymerization potency relative to paclitaxel (fold more potent)” value in data set [1] is “about 2.5 fold”. The MTD in the data set “in vivo” (iv) was determined as 8 mg/kg; in “in vivo” (po, pH 8) it was 90 mg/kg; in data set [6] it was 7.5 mg/kg; in [7], 10 mg/kg. The “LCK (gross log cell kill)” value in the data set with Pat-21 breast carcinoma is given as more than 4.1; in data set [2] (BMS-310705, IV, q4dx3 at OD 7.5 mg/kg, Expt. 40) it was 1.5; in data set [3] (BMS-310705, IV, q4dx3 at OD 8 mg/kg, Expt. 14) it was 2.4; in [4] (BMS-310705, IV, q4dx3 at OD 10 mg/kg, Expt. 968), 1.2. Moreover, the “water solubility (in words)” value in “Water solubility” is reported as “highly water-soluble”. Further, the “gross log cell kill (LCK)” value in data set [3] (BMS-310705 (PO), PO, q4dx3 at OD/MTD 90 mg/kg, Expt. 18) is recorded as 2.4. In addition, the “antitumor activity given orally compared with IV administration (in words)” value in [3] (PO vs IV) is recorded as “equivalent to that produced by IV drug administration”. In addition, the “oral antitumor activity (in words)” value in data set [3] (PO, every 4 days x 3 schedule, FIG. 4) is given as “highly active orally”. For the same compound, the IC50 in [8] lay in the range of 0.9 to 3.5 nM.

The values are drawn from US6727276B2, “Epothilone derivatives for the treatment of refractory tumors” (Bristol-Myers Squibb Company, priority 2001, dated 2004).
